# Read-outs that look alike come from different tables or passages of the source.
# Key:
# GABAB receptor [1] = biological target: T1, GABAB receptor (Rattus norvegicus, UniProt O88871+Q9Z0U4); experiment: In vitro [35S]GTPγS binding assay in rat cortical membranes; type: biochemical
# T1 construct: from tissue; host or cells: rat brain cortex membranes
# Description: In Vitro [^35S]GTPγS Binding Assay in Rat Cortical Membranes
# Cortices of freshly harvested rat brains were dissected on an ice-cold surface and homogenized by a glass Dounce homogeniser immediately in ice-cold buffer containing 50 mM Tris, 5 mM MgCl2 and 1 mM EDTA (pH=7.6). Tissue homogenates were centrifuged at 40000 g for 15 min at 4° C. Membrane pellets were resuspended in the same buffer and membranes were incubated for 10 min at 30° C. in a shaking water bath to eliminate endogenous GABA. Homogenates were centrifuged again under the same conditions. The final pellets were resuspended in ice-cold buffer (pH=7.6) containing 50 mM Tris, 100 mM NaCl, 7 mM MgCl2, 1 mM EDTA and 1 mM dithiotreithol (DTT) to yield a concentration of 20 mg tissue weight/ml and frozen at −70° C. until use. The assay was done in a buffer containing 50 mM Tris (pH=7.4), 100 mM NaCl, 7 mM MgCl2, 1 mM EDTA and 1 mM DTT. Each assay tube contained 150 μL GDP (in a final concentration of 50 μM), 100 μL ligand and 125 μL of the membrane suspension (250 μg tissue/tube). The assay tubes were preincubated for 10 min at 30° C. to assure equilibrium. Nonspecific binding was determined in the presence of 10 μM GTPγS; basal binding was determined in the presence of buffer only. After addition of […] [^35S]GTPγS in a volume of 25 μL to the tubes, membranes were incubated for an additional 60 min at 30° C. The assay was terminated by rapid filtration through Packard UniFilter GF/B using a Packard harvester and washed four times with 1 ml ice-cold buffer. After drying the filters at 40° C. for 1 h, 40 μL Microscint (Packard) was added to the filters and radioactivity of the filters was determined by a TopCount NXT (PerkinElmer, Waltham, Mass.; Alper and Nelson, Eur. J. Pharmacol. 1998, 343, 303-312; Rinken et al, Biochem. Pharmacol. 1999, 57, 155-162). Data thus gathered were used to determine PAM EC50 values for each compound as primary in vitro activity end point.
# GABAB receptor [2] = biological target: T2, GABAB receptor (Homo sapiens, UniProt O75899+Q9UBS5); conditions: Perdona et al, Neuropharmacology 2011; read-out: EC50, positive modulation of EC20 GABA-evoked [35S]GTPγS binding signal; cited from earlier work
# rats = conditions: significance only at high doses (30 and 100 mg/kg); cited from earlier work
# mice = conditions: cited from earlier work
# [3] = human conventional liver microsomes; cited from earlier work
# [4] = rat conventional liver microsomes; cited from earlier work
# [5] = mouse conventional liver microsomes; cited from earlier work
# GABAB receptor [6] = biological target: T2, GABAB receptor; conditions: compounds of Faghih et al., US 2016/0304527 A1; cited from earlier work
# adult rats = experiment: Foot shock-induced ultrasonic vocalization (USV) in adult rats; type: in vivo, rat; conditions: male Wistar rats
# Description: Foot Shock-Induced Ultrasonic Vocalization (USV) in Adult Rats
# (§1) Under stressful conditions, adult rats emit 22 kHz ultrasounds that can be reduced by various pharmacological treatments (De Vry et al, Eur. J. Pharmacol. 1993, 249, 331-339; Sanchez, Eur. J. Pharmacol. 2003, 463, 133-143). […] Therefore, a foot shock-induced vocalization paradigm in adult rats was used to assess in vivo efficacy of centrally acting GABAB receptor ligands. Behavioral measurements were carried out on male Wistar rats (200-250 g, Toxicoop, Hungary). Rats were housed in groups of four in plastic cages with a wire grid top in a temperature and light-controlled laboratory animal care unit (22±2° C., 12-h light/dark cycle, lights on at 6:00 AM) with ad libitum access to commercial pellet rat food and tap water. Investigations were approved by the Local Ethical Committee of Gedeon Richter Plc. and were carried out in strict compliance with the European Directive 2010/63/EU regarding the care and use of laboratory animals for experimental procedures and all efforts were made to minimize the number of animals as well as their suffering. In order to evoke emission of ultrasounds, animals were footshocked after a habituation period of 30 s (6 shocks, 1 s, 0.8 mA each, inter-shock interval 10 s) in a sound attenuated shocking chamber (Experimetria, 40×40×80 cm). […] Vocalizations were measured right after the last footshock for 10 min with a Metris Sonotrack system and the total time of vocalizations was registered. Vocalization of parallel vehicle treated animals was considered as control value and inhibition percent was calculated for each compound. At approximately 75 min after treatment and behavioral measurements, blood and brain samples were harvested in order to determine exposures associated with in vivo activity.
# [7] = Plasma and brain exposure after USV measurement; type: in vivo; conditions: rat, per os, about 75 min after treatment, formulation Tween
# Description: as §1
# [8] = [35S]GTPγS binding, rat cortical membranes, read-out: In vitro PAM potency (PAM EC50)
# T1 sequence (O88871 41-940): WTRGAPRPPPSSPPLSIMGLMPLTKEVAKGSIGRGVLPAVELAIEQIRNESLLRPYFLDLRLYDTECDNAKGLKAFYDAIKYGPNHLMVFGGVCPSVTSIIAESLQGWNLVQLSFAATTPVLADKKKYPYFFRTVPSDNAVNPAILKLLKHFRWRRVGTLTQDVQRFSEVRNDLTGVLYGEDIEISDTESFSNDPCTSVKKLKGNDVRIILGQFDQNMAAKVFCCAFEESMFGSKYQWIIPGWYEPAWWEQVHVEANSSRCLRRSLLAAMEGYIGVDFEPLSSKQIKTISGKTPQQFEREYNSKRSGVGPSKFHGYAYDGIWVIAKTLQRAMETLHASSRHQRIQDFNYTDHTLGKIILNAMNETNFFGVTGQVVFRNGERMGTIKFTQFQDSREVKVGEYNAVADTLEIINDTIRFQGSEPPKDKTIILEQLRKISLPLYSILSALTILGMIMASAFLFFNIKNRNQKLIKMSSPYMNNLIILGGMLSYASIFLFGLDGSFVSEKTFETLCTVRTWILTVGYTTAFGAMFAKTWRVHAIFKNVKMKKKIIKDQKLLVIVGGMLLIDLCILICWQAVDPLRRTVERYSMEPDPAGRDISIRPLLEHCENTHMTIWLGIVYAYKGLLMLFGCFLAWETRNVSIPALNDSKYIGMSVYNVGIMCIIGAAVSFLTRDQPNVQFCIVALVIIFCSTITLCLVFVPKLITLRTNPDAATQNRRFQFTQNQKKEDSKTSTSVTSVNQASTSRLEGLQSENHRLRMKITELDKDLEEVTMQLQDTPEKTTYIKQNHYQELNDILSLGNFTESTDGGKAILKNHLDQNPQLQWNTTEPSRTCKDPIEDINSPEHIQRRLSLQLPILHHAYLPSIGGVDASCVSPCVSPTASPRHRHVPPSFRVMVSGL
# T1 sequence (Q9Z0U4 17-960 limits assumed): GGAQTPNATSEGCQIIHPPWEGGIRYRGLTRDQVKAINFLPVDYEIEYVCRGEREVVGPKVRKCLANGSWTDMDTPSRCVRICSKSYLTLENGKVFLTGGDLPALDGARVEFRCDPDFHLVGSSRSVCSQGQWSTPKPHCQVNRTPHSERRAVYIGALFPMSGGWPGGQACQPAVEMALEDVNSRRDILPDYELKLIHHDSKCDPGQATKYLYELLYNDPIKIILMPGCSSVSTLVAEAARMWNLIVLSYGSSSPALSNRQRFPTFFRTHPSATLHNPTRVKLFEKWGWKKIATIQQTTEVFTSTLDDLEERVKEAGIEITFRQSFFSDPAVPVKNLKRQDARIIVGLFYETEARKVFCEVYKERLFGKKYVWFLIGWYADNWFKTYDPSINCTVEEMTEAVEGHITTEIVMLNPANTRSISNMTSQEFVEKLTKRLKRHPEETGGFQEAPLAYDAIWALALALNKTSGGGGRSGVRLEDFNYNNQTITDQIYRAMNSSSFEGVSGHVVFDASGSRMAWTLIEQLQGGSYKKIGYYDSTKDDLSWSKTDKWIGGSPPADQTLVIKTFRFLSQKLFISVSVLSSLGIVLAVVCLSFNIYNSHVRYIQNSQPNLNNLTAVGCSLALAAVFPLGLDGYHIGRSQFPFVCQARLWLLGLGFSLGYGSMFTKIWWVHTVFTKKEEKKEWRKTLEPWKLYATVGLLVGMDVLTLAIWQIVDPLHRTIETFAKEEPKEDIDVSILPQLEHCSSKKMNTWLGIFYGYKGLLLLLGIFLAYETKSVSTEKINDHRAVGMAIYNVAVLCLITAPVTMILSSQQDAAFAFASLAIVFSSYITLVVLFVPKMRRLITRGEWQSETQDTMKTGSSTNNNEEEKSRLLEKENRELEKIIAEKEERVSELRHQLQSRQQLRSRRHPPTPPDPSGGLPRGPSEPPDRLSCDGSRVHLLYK
# T2 sequence (O75899 42-941): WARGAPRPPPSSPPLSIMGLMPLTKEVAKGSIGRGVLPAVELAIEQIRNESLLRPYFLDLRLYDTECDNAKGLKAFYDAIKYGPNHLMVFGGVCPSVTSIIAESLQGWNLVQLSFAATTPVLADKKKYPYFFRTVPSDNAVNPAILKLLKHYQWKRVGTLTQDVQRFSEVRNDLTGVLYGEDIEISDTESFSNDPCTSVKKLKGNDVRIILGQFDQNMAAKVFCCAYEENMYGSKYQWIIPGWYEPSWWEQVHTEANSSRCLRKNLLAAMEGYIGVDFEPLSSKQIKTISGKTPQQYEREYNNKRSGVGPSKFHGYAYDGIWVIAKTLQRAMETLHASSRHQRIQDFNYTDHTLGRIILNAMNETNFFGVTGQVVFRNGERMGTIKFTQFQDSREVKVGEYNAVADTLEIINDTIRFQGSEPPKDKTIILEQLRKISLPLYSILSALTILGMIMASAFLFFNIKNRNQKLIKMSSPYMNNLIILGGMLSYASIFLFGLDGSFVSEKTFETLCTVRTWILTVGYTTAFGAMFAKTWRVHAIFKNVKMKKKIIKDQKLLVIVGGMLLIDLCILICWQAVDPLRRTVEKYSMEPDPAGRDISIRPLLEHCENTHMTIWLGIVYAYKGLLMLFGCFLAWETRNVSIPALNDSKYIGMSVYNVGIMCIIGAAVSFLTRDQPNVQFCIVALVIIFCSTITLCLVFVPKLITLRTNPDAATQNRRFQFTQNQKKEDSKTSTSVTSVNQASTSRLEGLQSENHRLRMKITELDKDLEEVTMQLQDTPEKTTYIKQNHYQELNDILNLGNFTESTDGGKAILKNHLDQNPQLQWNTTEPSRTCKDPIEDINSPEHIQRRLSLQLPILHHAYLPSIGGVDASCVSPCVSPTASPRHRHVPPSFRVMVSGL
# T2 sequence (Q9UBS5 15-961 limits assumed): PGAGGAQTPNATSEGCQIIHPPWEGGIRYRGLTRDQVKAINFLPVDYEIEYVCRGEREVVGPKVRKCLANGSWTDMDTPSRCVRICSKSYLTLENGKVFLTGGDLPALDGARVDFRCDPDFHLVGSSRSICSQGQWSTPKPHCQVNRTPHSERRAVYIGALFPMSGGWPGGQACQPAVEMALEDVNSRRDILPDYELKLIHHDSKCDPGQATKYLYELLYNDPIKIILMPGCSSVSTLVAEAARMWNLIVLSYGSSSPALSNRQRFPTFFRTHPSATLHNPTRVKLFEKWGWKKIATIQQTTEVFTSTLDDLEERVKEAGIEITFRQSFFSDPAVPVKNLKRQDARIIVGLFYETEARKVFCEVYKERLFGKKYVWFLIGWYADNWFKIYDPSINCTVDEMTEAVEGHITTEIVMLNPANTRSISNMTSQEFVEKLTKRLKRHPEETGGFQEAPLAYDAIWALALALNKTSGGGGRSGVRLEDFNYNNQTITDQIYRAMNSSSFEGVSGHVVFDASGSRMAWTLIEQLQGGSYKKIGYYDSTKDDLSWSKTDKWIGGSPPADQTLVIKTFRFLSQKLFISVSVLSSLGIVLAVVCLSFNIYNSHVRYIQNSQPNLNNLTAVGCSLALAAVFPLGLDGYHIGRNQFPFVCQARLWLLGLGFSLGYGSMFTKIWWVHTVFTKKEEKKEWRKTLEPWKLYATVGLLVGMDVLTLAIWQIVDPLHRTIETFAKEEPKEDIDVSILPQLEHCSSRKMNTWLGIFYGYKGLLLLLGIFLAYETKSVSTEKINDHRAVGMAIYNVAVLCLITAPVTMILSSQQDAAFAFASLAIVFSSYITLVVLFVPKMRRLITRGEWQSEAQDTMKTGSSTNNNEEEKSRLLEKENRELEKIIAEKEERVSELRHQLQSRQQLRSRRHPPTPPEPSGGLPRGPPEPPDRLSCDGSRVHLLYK
smiles,measurement,setting,value
"Cc1cc(N2CCCCC2CCO)n2nc(-c3ccc(Cl)cc3)cc2n1 (stereo not shown) [CMPPE, 2-{1-[2-(4-chlorophenyl)-5-methylpyrazolo[1,5-a]pyrimidin-7-yl]-2-piperidinyl}ethanol]",EC50,"GABAB receptor [1]; applicant's test system, read-out: EC50 in our in vitro [35S]GTPγS test system",611 nM
same,EC50,GABAB receptor [2],2570 nM
same,Efficacy in food consumption test,rats,mild efficacy
same,"ED50, potentiation of baclofen-induced muscle relaxation",mice,53.8 mg/kg
same,Clint,[3],0.19±0.02 mL/min/g liver
same,Clint,[4],0.31±0.07 mL/min/g liver
same,Clint,[5],1.18±0.4 mL/min/g liver
CCC(c1ccc(Cl)cc1)c1cc2nc(C)cc(N3CCCCC3CCO)n2n1 (stereo not shown) [Example 3-1],Binding potency (in words),GABAB receptor [6],nanomolar
Cc1nc2cc(-c3ccc(C(F)(F)F)cc3)nn2c(N2CCC[C@@](C(=O)O)(C(C)C)C2)c1C(C)C [Example 28],EC50,GABAB receptor [1]; [8],10 to 100 nM
same,inhibition in vivo at 10 mg/kg,"adult rats; Rattus norvegicus, po, 10 mg/kg per os, 1 h before shocking",35%
same,Brain exposure at 1 mg/kg,[7],184 ng/g
same,Plasma exposure at 1 mg/kg,[7],222 ng/mL
Cc1nc2c(F)c(-c3ccc(C(F)(F)F)cc3)nn2c(N2CCC[C@](C)(C(=O)O)C2)c1C(C)C [Example 84],EC50,GABAB receptor [1]; [8],1 to 10 nM
same,USV inhibition (%),"adult rats; at 3 mg/kg, per os",42 (at 3 mg/kg) %
same,Brain exposure at 1 mg/kg,[7],85 ng/g
same,Plasma exposure at 1 mg/kg,[7],113 ng/mL

# Source: patent publication US10960007B2, “Pharmacologically active aryl-substituted pyrazolo[1,5-a]pyrimidine derivatives” (RICHTER GEDEON NYRT., priority 2017, dated 2021)
